Test results from ChEMBL document CHEMBL1128601, “Development of a novel series of trialkoxyaryl derivatives as specific and competitive antagonists of platelet activating factor” (J Med Chem, 1995).

How the values were obtained:
[1] = test system: Platelet-activating factor receptor (Oryctolagus cuniculus); assay: Competitive inhibition of PAF-induced platelet aggregation was measured as IC50 ratio is (1000 x the IC50 of the test compound divided by the IC50 of a standard)
[2] = organism: Oryctolagus cuniculus; assay: Activity against adenosine diphosphate (ADP) induced platelet aggregation
[3] = organism: Oryctolagus cuniculus; assay: Competitive inhibition of PAF-induced platelet aggregation was measured as IC50 ratio = [1000 x the IC50 of the test compound divided by the IC50 of a standard (3)]; type: functional
[4] = organism: Oryctolagus cuniculus; assay: Activity against U-46,619 induced platelet aggregation; no effect at 20 uM; type: functional

CCCCCCOc1c(OC)cc(CCCCc2scnc2C)cc1OC
IC50 ratio [1]: 14.7

COc1cc(C(=O)OCCCC[N+](C)(C)C)cc(OC)c1OCc1ccccc1.[I-]
IC50 ratio [1]: 533
IC50 [2]: Not Active

CCCCCOc1c(OC)cc(C(=O)OCCCC[N+](C)(C)C)cc1OC.[I-]
IC50 ratio [1]: 540
IC50 [2]: Not Active

CCCCCCOc1c(OC)cc(C(=O)OCCc2sc[n+](C)c2C)cc1OC.[I-]
IC50 ratio [1]: 114
IC50 [2]: Not Active

CCCCCCOc1c(OC)cc(C(=O)Oc2ccccc2CC[N+](C)(C)C)cc1OC
IC50 ratio [1]: 507

CCCCCCOc1c(OC)cc(C(=O)OCCc2scnc2C)cc1OC
IC50 ratio [1]: 116

CCCCCCOc1c(Cl)cc(C(=O)OCCCC[N+](C)(C)C)cc1OC
IC50 ratio [1]: 263

CCCCCCOc1c(OC)cc(C(=O)OCCCC[N+](C)(C)C)cc1OC.[I-]
IC50 ratio [1]: 164
IC50 [2]: Not Active

CCCCCCOc1ccc(C(=O)OCCCC[N+](C)(C)C)cc1
IC50 ratio [1]: 1400

CCCCCCCCCCOc1c(OC)cc(C(=O)OCC[N+](C)(C)C)cc1OC
IC50 ratio [1]: 153

CCCCCCOc1c(OC)cc(C(=O)OCCCCCC[N+](C)(C)C)cc1OC
IC50 ratio [1]: 270

CCCCCCOc1c(OC)cc(OC(=O)CCCC[N+](C)(C)C)cc1OC.[I-]
IC50 ratio [1]: 833
IC50 [2]: Not Active

CCCCCCOc1c(OC)cc(C(=O)OCCCC[n+]2cccc3ccccc32)cc1OC.[Cl-]
IC50 ratio [1]: 57.3
IC50 [2]: Not Active

CCCCCCOc1c(OC)cc(C(=O)OCCC[N+](C)(C)C)cc1OC.[I-]
IC50 ratio [1]: 7000
IC50 [2]: Not Active

CCCCCCOc1ccc(C(=O)OCCCC[N+](C)(C)C)cc1OC.[I-]
IC50 ratio [1]: 1740
IC50 [2]: Not Active

CCCCCCCCOc1c(OC)cc(C(=O)OCCCC[N+](C)(C)C)cc1OC
IC50 ratio [1]: 103

CCCCCCOc1c(OC)cc(CCCCCC[N+](C)(C)C)cc1OC
IC50 ratio [1]: 65

CCCCCCOc1c(OC)cc(C(=O)OCCCC[n+]2ccccc2)cc1OC.[I-]
IC50 ratio [1]: 107
IC50 [2]: Not Active

CCCCCCOc1c(OC)cc(/C=C/CCCC[N+](C)(C)C)cc1OC.[I-]
IC50 ratio [1]: 133
IC50 [2]: Not Active

CCCCCCOc1c(OC)cc(C(=O)OCCCC[n+]2ccsc2)cc1OC
IC50 ratio [1]: 48

CCCCCCOc1c(C)cc(C(=O)OCCCC[N+](C)(C)C)cc1C
IC50 ratio [1]: 265

CCCCCCCOc1c(OC)cc(C(=O)OCCCC[N+](C)(C)C)cc1OC.[I-]
IC50 ratio [1]: 199
IC50 [2]: Not Active

CCCCCCOc1c(OC)cc(C=CCCCC[N+](C)(C)C)cc1OC.[I-]
IC50 ratio [1]: 200
IC50 [2]: Not Active

COc1cc(C(=O)OCCCC[N+](C)(C)C)cc(OC)c1OCCC1CCCC1
IC50 ratio [1]: 203

CCCCCCOc1c(OC)cc(C(=O)OCCCC[N+](CC)(CC)CC)cc1OC.[I-]
IC50 ratio [1]: 115
IC50 [2]: Not Active

CCCCCCCCCCCCCCCCOc1c(OC)cc(C(=O)OCCCC[N+](C)(C)C)cc1OC
IC50 ratio [1]: 35

CCCCCCOc1c(OC)cc(C(=O)OCCCCN(C)C)cc1OC
IC50 ratio [1]: 1500
IC50 [2]: Not Active

CCCCCCOc1c(OC)cc(CC(=O)OCCC[N+](C)(C)C)cc1OC
IC50 ratio [1]: 820

COc1cc(C(=O)OCC[N+](C)(C)C)cc(OC)c1OC.[I-]
IC50 ratio [3]: 15000

CCCCOc1c(OC)cc(C(=O)OCC[N+](C)(C)C)cc1OC.[I-]
IC50 ratio [1]: 3370
IC50 [2]: Not Active

CCCCCCOc1c(OC)cc(C(=O)OCC[N+](C)(C)C)cc1OC.[I-]
IC50 ratio [1]: 1000
IC50 [2]: Not Active

CCCCCCOc1c(OC)cc(C(=O)OCc2ccccc2C[N+](C)(C)C)cc1OC
IC50 ratio [1]: 144

COc1cc(C(=O)OCCCC[N+](C)(C)C)cc(OC)c1OCC1CCCCC1.[I-]
IC50 [4]: Not Active
IC50 ratio [1]: 443

CCCCCCOc1c(OC)cc(C(=O)Oc2ccc3c(ccc[n+]3C)c2)cc1OC
IC50 ratio [1]: 13

CCCCCCOc1c(OC)cc(C(=O)Oc2cccc3ccc[n+](C)c23)cc1OC.[I-]
IC50 ratio [1]: 11.7
IC50 [2]: Not Active
